Test results as given in ChEMBL document CHEMBL1128422 (J Med Chem, 1995).

Organism: Oryctolagus cuniculus
Assay: Ability to stimulate contraction of the rabbit iris sphincter smooth muscle using smooth muscle contraction assay
Assay type: functional
Settings: Muscle tissue

Compound | EC50 [nM]
CSCC[C@H](NC(=O)[C@H](CC(C)C)NC(=O)CNC(=O)[C@@H](NC(=O)[C@@H](NC(=O)[C@H](CCC(N)=O)NC(=O)[C@H](CCC(N)=O)NC(=O)[C@@H]1CCCN1C(=O)[C@H](CCCCN)NC(=O)[C@@H]1CCCN1C(=O)[C@@H](N)CCCN=C(N)N)[C@@H](C)c1ccccc1)[C@@H](C)c1ccccc1)C(N)=O | 0.18
CSCC[C@H](NC(=O)[C@H](CC(C)C)NC(=O)CNC(=O)[C@@H](NC(=O)[C@H](Cc1ccccc1)NC(=O)[C@H](CCC(N)=O)NC(=O)[C@H](CCC(N)=O)NC(=O)[C@@H]1CCCN1C(=O)[C@H](CCCCN)NC(=O)[C@@H]1CCCN1C(=O)[C@@H](N)CCCN=C(N)N)[C@H](C)c1ccccc1)C(N)=O | 5.76
CSCC[C@H](NC(=O)[C@H](CC(C)C)NC(=O)CNC(=O)[C@H](Cc1ccccc1)NC(=O)[C@@H](NC(=O)[C@H](CCC(N)=O)NC(=O)[C@H](CCC(N)=O)NC(=O)[C@@H]1CCCN1C(=O)[C@H](CCCCN)NC(=O)[C@@H]1CCCN1C(=O)[C@@H](N)CCCN=C(N)N)[C@H](C)c1ccccc1)C(N)=O | 0.54
CSCC[C@H](NC(=O)[C@H](CC(C)C)NC(=O)CNC(=O)[C@@H](NC(=O)[C@@H](NC(=O)[C@H](CCC(N)=O)NC(=O)[C@H](CCC(N)=O)NC(=O)[C@@H]1CCCN1C(=O)[C@H](CCCCN)NC(=O)[C@@H]1CCCN1C(=O)[C@@H](N)CCCN=C(N)N)[C@H](C)c1ccccc1)[C@H](C)c1ccccc1)C(N)=O | 10
CSCC[C@H](NC(=O)[C@H](CC(C)C)NC(=O)CNC(=O)[C@@H](NC(=O)[C@@H](NC(=O)[C@H](CCC(N)=O)NC(=O)[C@H](CCC(N)=O)NC(=O)[C@@H]1CCCN1C(=O)[C@H](CCCCN)NC(=O)[C@@H]1CCCN1C(=O)[C@@H](N)CCCN=C(N)N)[C@H](C)c1ccccc1)[C@@H](C)c1ccccc1)C(N)=O | 0.28
CSCC[C@H](NC(=O)[C@H](CC(C)C)NC(=O)CNC(=O)[C@@H](NC(=O)[C@@H](NC(=O)[C@H](CCC(N)=O)NC(=O)[C@H](CCC(N)=O)NC(=O)[C@@H]1CCCN1C(=O)[C@H](CCCCN)NC(=O)[C@@H]1CCCN1C(=O)[C@@H](N)CCCN=C(N)N)[C@@H](C)c1ccccc1)[C@H](C)c1ccccc1)C(N)=O | 0.58
CSCC[C@H](NC(=O)[C@H](CC(C)C)NC(=O)CNC(=O)[C@H](Cc1ccccc1)NC(=O)[C@@H](NC(=O)[C@H](CCC(N)=O)NC(=O)[C@H](CCC(N)=O)NC(=O)[C@@H]1CCCN1C(=O)[C@H](CCCCN)NC(=O)[C@@H]1CCCN1C(=O)[C@@H](N)CCCN=C(N)N)[C@@H](C)c1ccccc1)C(N)=O | 0.59
CSCC[C@H](NC(=O)[C@H](CC(C)C)NC(=O)CNC(=O)[C@@H](NC(=O)[C@H](Cc1ccccc1)NC(=O)[C@H](CCC(N)=O)NC(=O)[C@H](CCC(N)=O)NC(=O)[C@@H]1CCCN1C(=O)[C@H](CCCCN)NC(=O)[C@@H]1CCCN1C(=O)[C@@H](N)CCCN=C(N)N)[C@@H](C)c1ccccc1)C(N)=O | 0.13
